Measured values reported in patent US20230278972A1, “SUBSTITUTED HALOALKYL SULFONANILIDE HERBICIDES” (FMC Corporation, priority 2020, published 2023).

Tests used:
Type in all cases: in vivo
[1] = tested on: barnyardgrass (Echinochloa crus-galli); assay: Test A preemergence, barnyardgrass; details: Preemergence; for Barnyardgrass plant response rating: 125 g ai/ha, visual injury on 0 to 100 scale (0 no effect, 100 complete control), approximately 10 days; for Plant response rating, Barnyardgrass: 0 to 100 scale (0 no effect, 100 complete control)
Procedure, shortened: (§1)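 Directed soil spray at planting gave the preemergence treatment, while foliar application to one- to two-leaf seedlings (2–10 cm) gave the postemergence one; pots held a loam and sand mixture and chemicals were carried in a non-phytotoxic solvent with surfactant.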

[2] = tested on: Foxtail, Giant (giant foxtail, Setaria faberi); assay: Test A preemergence, Foxtail, Giant; details: Preemergence; for Foxtail, Giant plant response rating: 125 g ai/ha, visual injury on 0 to 100 scale (0 no effect, 100 complete control), approximately 10 days; for Plant response rating, Foxtail, Giant: 0 to 100 scale (0 no effect, 100 complete control)
Procedure, shortened: as §1

[3] = tested on: galium (catchweed bedstraw, Galium aparine); assay: Test A postemergence, galium; details: Postemergence, 0 to 100 scale (0 no effect, 100 complete control)
Procedure, shortened: (§2)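 Preemergence: pigweed seeds in loam soil–sand blend received a directed soil spray of test chemicals in a non-phytotoxic solvent with surfactant. Postemergence: barnyardgrass, wheat and galium in pots of the same soil, 2 to 10 cm tall at one- to two-leaf stage, sprayed with the same formulation.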

[4] = tested on: Ryegrass, Italian (Italian ryegrass, Lolium multiflorum); assay: Test A preemergence, Ryegrass, Italian; details: Preemergence; for Ryegrass, Italian plant response rating: 125 g ai/ha, visual injury on 0 to 100 scale (0 no effect, 100 complete control), approximately 10 days; for Plant response rating, Ryegrass, Italian: 0 to 100 scale (0 no effect, 100 complete control)
Procedure, shortened: as §1

[5] = tested on: ragweed (common ragweed, Ambrosia artemisiifolia); assay: Test A postemergence, ragweed; details: Postemergence, 0 to 100 scale (0 no effect, 100 complete control)
Procedure, shortened: as §1

[6] = tested on: pigweed (Amaranthus retroflexus); assay: Test A preemergence, pigweed; details: for Pigweed plant response rating: 125 g ai/ha, visual injury on 0 to 100 scale (0 no effect, 100 complete control), approximately 10 days; for Plant response rating, Pigweed: 0 to 100 scale (0 no effect, 100 complete control)
Procedure, shortened: as §2

[7] = tested on: Foxtail, Giant (giant foxtail, Setaria faberi); assay: Test A postemergence, Foxtail, Giant; details: Postemergence, 0 to 100 scale (0 no effect, 100 complete control)
Procedure, shortened: as §1

[8] = tested on: kochia (Bassia scoparia); assay: Test A preemergence, kochia; details: Preemergence; for Kochia plant response rating: 125 g ai/ha, visual injury on 0 to 100 scale (0 no effect, 100 complete control), approximately 10 days; for Plant response rating, Kochia: 0 to 100 scale (0 no effect, 100 complete control)
Procedure, shortened: as §1

[9] = tested on: kochia (Bassia scoparia); assay: Test A postemergence, kochia; details: Postemergence, 0 to 100 scale (0 no effect, 100 complete control)
Procedure, shortened: as §1

[10] = tested on: corn (Zea mays); assay: Test A postemergence, corn; details: Postemergence, 0 to 100 scale (0 no effect, 100 complete control)
Procedure, shortened: as §1

[11] = tested on: barnyardgrass (Echinochloa crus-galli); assay: Test A postemergence, barnyardgrass; details: Postemergence, 0 to 100 scale (0 no effect, 100 complete control)
Procedure, shortened: as §2

[12] = tested on: pigweed (Amaranthus retroflexus); assay: Test A postemergence, pigweed; details: Postemergence, 0 to 100 scale (0 no effect, 100 complete control)
Procedure, shortened: as §1

[13] = tested on: ragweed (common ragweed, Ambrosia artemisiifolia); assay: Test A preemergence, ragweed; details: Preemergence; for Ragweed plant response rating: 125 g ai/ha, visual injury on 0 to 100 scale (0 no effect, 100 complete control), approximately 10 days; for Plant response rating, Ragweed: 0 to 100 scale (0 no effect, 100 complete control)
Procedure, shortened: as §1

[14] = tested on: wheat (Triticum aestivum); assay: Test A postemergence, wheat; details: Postemergence, 0 to 100 scale (0 no effect, 100 complete control)
Procedure, shortened: as §2

[15] = tested on: Ryegrass, Italian (Italian ryegrass, Lolium multiflorum); assay: Test A postemergence, Ryegrass, Italian; details: Postemergence, 0 to 100 scale (0 no effect, 100 complete control)
Procedure, shortened: as §1

[16] = tested on: blackgrass (Alopecurus myosuroides); assay: Test A postemergence, blackgrass; details: Postemergence, 0 to 100 scale (0 no effect, 100 complete control)
Procedure, shortened: as §1

[17] = 500 g ai/ha, visual injury vs untreated controls after approx. 10 days
[18] = 1000 g ai/ha, visual injury, approx. 10 days
[19] = 125 g ai/ha, visual injury approx. 10 days
[20] = 500 g ai/ha, visual injury, approx. 10 days

## C#CCN(CC#C)C(=O)c1cc(N(S(=O)(=O)C(F)(F)F)S(=O)(=O)C(F)(F)F)c(C)cc1C [Compound 181]
[1]
  Barnyardgrass plant response rating: 90
[1]; 500 g ai/ha
  Plant response rating, Barnyardgrass: 100
[2]
  Foxtail, Giant plant response rating: 100
[2]; 500 g ai/ha
  Plant response rating, Foxtail, Giant: 100
[3]; 125 g ai/ha
  Plant response rating, Galium: 60
[3]; [17]
  Galium plant response rating: 70
[4]
  Ryegrass, Italian plant response rating: 80
[4]; 500 g ai/ha
  Plant response rating, Ryegrass, Italian: 90
[5]; 125 g ai/ha
  Plant response rating, Ragweed: 80
[5]; [17]
  Ragweed plant response rating: 90
[6]
  Pigweed plant response rating: 40
[6]; 500 g ai/ha
  Plant response rating, Pigweed: 80
[7]; 125 g ai/ha
  Plant response rating, Foxtail, Giant: 60
[7]; [17]
  Foxtail, Giant plant response rating: 90
[8]
  Kochia plant response rating: 60
[8]; 500 g ai/ha
  Plant response rating, Kochia: 100
[9]; 125 g ai/ha
  Plant response rating, Kochia: 30
[9]; [17]
  Kochia plant response rating: 80
[10]; 125 g ai/ha
  Plant response rating, Corn: 10
[10]; [17]
  Corn plant response rating: 80
[11]; 125 g ai/ha
  Plant response rating, Barnyardgrass: 80
[11]; [17]
  Barnyardgrass plant response rating: 90
[12]; 125 g ai/ha
  Plant response rating, Pigweed: 40
[12]; [17]
  Pigweed plant response rating: 80
[13]
  Ragweed plant response rating: 50
[13]; 500 g ai/ha
  Plant response rating, Ragweed: 90
[14]; 125 g ai/ha
  Plant response rating, Wheat: 50
[14]; [17]
  Wheat plant response rating: 80
[15]; 125 g ai/ha
  Plant response rating, Ryegrass, Italian: 70
[15]; [17]
  Ryegrass, Italian plant response rating: 90
[16]; 125 g ai/ha
  Plant response rating, Blackgrass: 10
[16]; [17]
  Blackgrass plant response rating: 30

## Cc1cc(C)c(C(=O)N2CCN(C)CC2)cc1NS(=O)(=O)C(F)(F)F [Compound 10]
[1]; 1000 g ai/ha
  Plant response rating, Barnyardgrass: 40
[2]; 1000 g ai/ha
  Plant response rating, Foxtail, Giant: 80
[3]; [18]
  Plant response rating, Galium: 80
[4]; 1000 g ai/ha
  Plant response rating, Ryegrass, Italian: 90
[5]; [18]
  Plant response rating, Ragweed: 80
[6]; 1000 g ai/ha
  Plant response rating, Pigweed: 100
[7]; [18]
  Plant response rating, Foxtail, Giant: 20
[8]; 1000 g ai/ha
  Plant response rating, Kochia: 60
[9]; [18]
  Plant response rating, Kochia: 40
[10]; [18]
  Plant response rating, Corn: 10
[11]; [18]
  Plant response rating, Barnyardgrass: 10
[12]; [18]
  Plant response rating, Pigweed: 80
[13]; 1000 g ai/ha
  Plant response rating, Ragweed: 90
[14]; [18]
  Plant response rating, Wheat: 0
[15]; [18]
  Plant response rating, Ryegrass, Italian: 60
[16]; [18]
  Plant response rating, Blackgrass: 0

## Cc1cc(C)c(C(=O)N2CC(C)OC(C)C2)cc1NS(=O)(=O)C(F)(F)F (centres unmarked) [Compound 9]
[1]
  Barnyardgrass plant response rating: 100
[1]; 500 g ai/ha
  Plant response rating, Barnyardgrass: 100
[2]
  Foxtail, Giant plant response rating: 80
[2]; 500 g ai/ha
  Plant response rating, Foxtail, Giant: 100
[3]; [19]
  Plant response rating, Galium: 80
[3]; [20]
  Plant response rating, Galium: 90
[4]
  Ryegrass, Italian plant response rating: 90
[4]; 500 g ai/ha
  Plant response rating, Ryegrass, Italian: 100
[5]; [19]
  Plant response rating, Ragweed: 70
[5]; [20]
  Plant response rating, Ragweed: 80
[6]
  Pigweed plant response rating: 30
[6]; 500 g ai/ha
  Plant response rating, Pigweed: 80
[7]; [19]
  Plant response rating, Foxtail, Giant: 20
[7]; [20]
  Plant response rating, Foxtail, Giant: 90
[8]
  Kochia plant response rating: 70
[8]; 500 g ai/ha
  Plant response rating, Kochia: 90
[9]; [19]
  Plant response rating, Kochia: 10
[9]; [20]
  Plant response rating, Kochia: 30
[10]; [19]
  Plant response rating, Corn: 0
[10]; [20]
  Plant response rating, Corn: 70
[11]; [19]
  Plant response rating, Barnyardgrass: 80
[11]; [20]
  Plant response rating, Barnyardgrass: 90
[12]; [19]
  Plant response rating, Pigweed: 60
[12]; [20]
  Plant response rating, Pigweed: 80
[13]
  Ragweed plant response rating: 90
[13]; 500 g ai/ha
  Plant response rating, Ragweed: 90
[14]; [19]
  Plant response rating, Wheat: 60
[14]; [20]
  Plant response rating, Wheat: 70
[15]; [19]
  Plant response rating, Ryegrass, Italian: 70
[15]; [20]
  Plant response rating, Ryegrass, Italian: 80
[16]; [19]
  Plant response rating, Blackgrass: 30
[16]; [20]
  Plant response rating, Blackgrass: 30
